Assay results: PubChem BioAssay AID1963833 (Molecular Pharmacology Branch, DTP, NCI, 2024)

Tested on: 883617-216-R-J1-PDC complex spheroid viability
Assay: Anticancer human tumor 883617-216-R-J1-PDC patient-derived bladder carcinoma cell line growth inhibition [POLQ]
Conditions: for IC50: curve of first compound; for viability, T/C: stronger effect = lower value; active = viability on the fitted dose curve at most 10% of control; inactive = the rest
How it was run: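 Three-cell-type spheroids modelling solid tumor plus stroma served as the readout system; POL inhibitors were tested individually and in combination, concentration ranges set by clinical Cmax where known.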

[1] = second compound 0.0316 µM, first compound 0.0316 µM
[2] = second compound 0.0316 µM, first compound 0.1 µM
[3] = second compound 0.0316 µM, first compound 0.316 µM
[4] = second compound 0.0316 µM, first compound 1 µM
[5] = second compound 0.1 µM, first compound 0.0316 µM
[6] = second compound 0.1 µM, first compound 0.1 µM
[7] = second compound 0.1 µM, first compound 0.316 µM
[8] = second compound 0.1 µM, first compound 1 µM
[9] = second compound 0.316 µM, first compound 0.0316 µM
[10] = second compound 0.316 µM, first compound 0.1 µM
[11] = second compound 0.316 µM, first compound 0.316 µM
[12] = second compound 0.316 µM, first compound 1 µM
[13] = second compound 1 µM, first compound 0.0316 µM
[14] = second compound 1 µM, first compound 0.1 µM
[15] = second compound 1 µM, first compound 0.316 µM
[16] = second compound 1 µM, first compound 1 µM
[17] = second compound 3.16 µM, first compound 0.0316 µM
[18] = second compound 3.16 µM, first compound 0.1 µM
[19] = second compound 3.16 µM, first compound 0.316 µM
[20] = second compound 3.16 µM, first compound 1 µM
[21] = second compound 10 µM, first compound 0.0316 µM
[22] = second compound 10 µM, first compound 0.1 µM
[23] = second compound 10 µM, first compound 0.316 µM
[24] = second compound 10 µM, first compound 1 µM
[25] = second compound 0.0316 µM, first compound 0.00316 µM
[26] = second compound 0.0316 µM, first compound 0.01 µM
[27] = second compound 0.1 µM, first compound 0.00316 µM
[28] = second compound 0.1 µM, first compound 0.01 µM
[29] = second compound 0.316 µM, first compound 0.00316 µM
[30] = second compound 0.316 µM, first compound 0.01 µM
[31] = second compound 1 µM, first compound 0.00316 µM
[32] = second compound 1 µM, first compound 0.01 µM
[33] = second compound 3.16 µM, first compound 0.00316 µM
[34] = second compound 3.16 µM, first compound 0.01 µM
[35] = second compound 10 µM, first compound 0.00316 µM
[36] = second compound 10 µM, first compound 0.01 µM
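Note: spheroids exposed to compounds for seven days before readout.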
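Throughout, for viability, T/C: 100% = DMSO vehicle control viability.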

COc1ccc([C@@H](O)c2cc(-c3ncnc4cc(N5CCOCC5)ccc34)c(F)cc2Cl)nn1 + COC1C(OC(N)=O)C(O)C(Oc2ccc3c(O)c(NC(=O)c4ccc(O)c(CC=C(C)C)c4)c(=O)oc3c2C)OC1(C)C
2440 nM: IC50 (second compound 1 µM) | IC50 (second compound 3.16 µM)
3210 nM: IC50 (second compound 10 µM)
1800 nM: IC50 (second compound 0.1 µM)
2900 nM: IC50 (second compound 0.0316 µM)
inactive: viability, T/C [1] 92.5% | viability, T/C [2] 104% | viability, T/C [3] 94.5% | viability, T/C [4] 77.5% | viability, T/C (second compound 0.0316 µM, first compound 3.16 µM) 47.9% | viability, T/C (second compound 0.0316 µM, first compound 10 µM) 39.1% | viability, T/C [5] 98.5% | viability, T/C [6] 82.2% | viability, T/C [7] 104% | viability, T/C [8] 61.3% | viability, T/C (second compound 0.1 µM, first compound 3.16 µM) 45.2% | viability, T/C (second compound 0.1 µM, first compound 10 µM) 33% | viability, T/C [9] 93.9% | viability, T/C [10] 89.2% | viability, T/C [11] 76.8% | viability, T/C [12] 56.1% | viability, T/C (second compound 0.316 µM, first compound 3.16 µM) 46% | viability, T/C (second compound 0.316 µM, first compound 10 µM) 28.2% | viability, T/C [13] 108% | viability, T/C [14] 85.8% | viability, T/C [15] 80.8% | viability, T/C [16] 61.3% | viability, T/C (second compound 1 µM, first compound 3.16 µM) 45.1% | viability, T/C (second compound 1 µM, first compound 10 µM) 33.1% | viability, T/C [17] 95.9% | viability, T/C [18] 95.2% | viability, T/C [19] 78.3% | viability, T/C [20] 65.5% | viability, T/C (second compound 3.16 µM, first compound 3.16 µM) 45.4% | viability, T/C (second compound 3.16 µM, first compound 10 µM) 33.3% | viability, T/C [21] 87% | viability, T/C [22] 79.3% | viability, T/C [23] 86.4% | viability, T/C [24] 68.1% | viability, T/C (second compound 10 µM, first compound 3.16 µM) 51.3% | viability, T/C (second compound 10 µM, first compound 10 µM) 34.2%
1940 nM: IC50 (second compound 0.316 µM)

COc1cccc(OCCCN)c1-c1cc(Nc2cnc(C#N)cn2)n[nH]1 + COC1C(OC(N)=O)C(O)C(Oc2ccc3c(O)c(NC(=O)c4ccc(O)c(CC=C(C)C)c4)c(=O)oc3c2C)OC1(C)C
inactive: viability, T/C [25] 83.3% | viability, T/C [26] 73.8% | viability, T/C [1] 46.9% | viability, T/C [2] 42.4% | viability, T/C [3] 28.1% | viability, T/C [4] 23.4% | viability, T/C [27] 91% | viability, T/C [28] 76.8% | viability, T/C [5] 46.5% | viability, T/C [6] 40.4% | viability, T/C [7] 27.6% | viability, T/C [8] 27.1% | viability, T/C [29] 85.6% | viability, T/C [30] 67.3% | viability, T/C [9] 66.3% | viability, T/C [10] 37.6% | viability, T/C [11] 32.5% | viability, T/C [12] 30% | viability, T/C [31] 90.8% | viability, T/C [32] 69.9% | viability, T/C [13] 42.6% | viability, T/C [14] 35.4% | viability, T/C [15] 27.7% | viability, T/C [16] 27.2% | viability, T/C [33] 88.2% | viability, T/C [34] 62.2% | viability, T/C [17] 41.4% | viability, T/C [18] 37.5% | viability, T/C [19] 39.6% | viability, T/C [20] 27.4% | viability, T/C [35] 92.2% | viability, T/C [36] 75.2% | viability, T/C [21] 50.9% | viability, T/C [22] 36.2% | viability, T/C [23] 35% | viability, T/C [24] 25.7%
24.4 nM: IC50 (second compound 1 µM)
33.2 nM: IC50 (second compound 0.1 µM)
21.5 nM: IC50 (second compound 3.16 µM)
38.9 nM: IC50 (second compound 0.0316 µM)
58.9 nM: IC50 (second compound 0.316 µM)
36.5 nM: IC50 (second compound 10 µM)

Cn1ncnc1[C@H]1c2n[nH]c(=O)c3cc(F)cc(c23)N[C@@H]1c1ccc(F)cc1 + COC1C(OC(N)=O)C(O)C(Oc2ccc3c(O)c(NC(=O)c4ccc(O)c(CC=C(C)C)c4)c(=O)oc3c2C)OC1(C)C
inactive: viability, T/C (second compound 0.0316 µM, first compound 0.000316 µM) 103% | viability, T/C (second compound 0.0316 µM, first compound 0.001 µM) 93.1% | viability, T/C [25] 95.5% | viability, T/C [26] 94.9% | viability, T/C [1] 72.8% | viability, T/C [2] 78.4% | viability, T/C (second compound 0.1 µM, first compound 0.000316 µM) 110% | viability, T/C (second compound 0.1 µM, first compound 0.001 µM) 95.9% | viability, T/C [27] 108% | viability, T/C [28] 80.2% | viability, T/C [5] 75.8% | viability, T/C [6] 69.3% | viability, T/C (second compound 0.316 µM, first compound 0.000316 µM) 108% | viability, T/C (second compound 0.316 µM, first compound 0.001 µM) 99% | viability, T/C [29] 89.9% | viability, T/C [30] 82.9% | viability, T/C [9] 67.5% | viability, T/C [10] 64% | viability, T/C (second compound 1 µM, first compound 0.000316 µM) 95.8% | viability, T/C (second compound 1 µM, first compound 0.001 µM) 104% | viability, T/C [31] 101% | viability, T/C [32] 80.5% | viability, T/C [13] 83.2% | viability, T/C [14] 76.9% | viability, T/C (second compound 3.16 µM, first compound 0.000316 µM) 99.4% | viability, T/C (second compound 3.16 µM, first compound 0.001 µM) 102% | viability, T/C [33] 101% | viability, T/C [34] 70.9% | viability, T/C [17] 82.5% | viability, T/C [18] 68% | viability, T/C (second compound 10 µM, first compound 0.000316 µM) 94.2% | viability, T/C (second compound 10 µM, first compound 0.001 µM) 97.9% | viability, T/C [35] 97.7% | viability, T/C [36] 71.6% | viability, T/C [21] 79.5% | viability, T/C [22] 70.8%
> 100 nM: IC50 (second compound 0.0316 µM) | IC50 (second compound 0.1 µM) | IC50 (second compound 0.316 µM) | IC50 (second compound 1 µM) | IC50 (second compound 3.16 µM) | IC50 (second compound 10 µM)
